This is an account of results in the RepoRT retention time repository.

The series is described as follows: RP, Waters ACQUITY Premier BEH C18, 100 × 2.1 mm, 1.7 µm, 40 °C, 0.3 to 0.4 mL/min, estimated dead time 0.73 min; A: water + 0.1% formic acid; B: acetonitrile + 0.1% formic acid; gradient (min/%B) 0/0.5 0.1/0.5 10/80 10.1/99.5 12/0.5 12.1/0.5 14.5/0.5. The settings on record: stereoisomer not certain.
Regarding `CC(=O)OC1CC(=O)OC(C)(C)C2CC(=O)C3(C)C(CCC4(C)C(c5ccoc5)OC(=O)C5OC543)C12C` (stereo not given) [NOMILIN], the LC retention time is 7.05 min.
For the compound `Cc1ncc(CO)c(CO)c1O` [PYRIDOXINE], the LC retention time is 2.1 min.
The value for `O=c1c(-c2ccc(O)cc2)coc2cc(OC3OC(CO)C(O)C(O)C3O)cc(O)c12` (stereo not given) [GENISTIN] was 4.57 min; that for `CC1OC(n2cnc3c(N)ncnc32)C(O)C1O` (stereo not given) [5'-DEOXYADENOSINE] was 3.5 min.
As for `OCC1OC(OC2C(CO)OC(OC3C(CO)OC(OC4C(CO)OC(O)C(O)C4O)C(O)C3O)C(O)C2O)C(O)C(O)C1O` (stereo not given) [MALTOTETRAOSE], the LC retention time was 1.07 min.
Consider `Nc1nc2nccnc2c(=O)[nH]1` [PTERIN], for which the LC retention time was 2.44 min.
The value for `CC(CC(=O)O)C(=O)O` (stereo not given) [METHYLSUCCINIC ACID] was 3.75 min; that for `OCC1OC(OC2OC(CO)C(O)C(O)C2O)C(O)C(O)C1O` (stereo not given) [TREHALOSE] was 0.911 min; that for `Nc1ccccc1C(=O)CC(N)C(=O)O` (stereo not given) [KYNURENINE] was 3.62 min.
As for `O=C(O)CCCCc1ccccc1` [5-PHENYLVALERIC ACID], the LC retention time was 7.21 min.
The value for `O=C(O)Cc1c[nH]c2ccc(O)cc12` [5-HYDROXYINDOLEACETATE] was 4.41 min; that for `O=c1ccn(C2OC(CO)C(O)C2O)c(=O)[nH]1` (stereo not given) [URIDINE] was 2.45 min; that for `O=C(O)CCCCCCC(=O)NCC(=O)O` [SUBERYLGLYCINE] was 3.79 min.
With `O=c1[nH]c(=O)c2nccnc2[nH]1` [2,4-DIHYDROXYPTERIDINE], the LC retention time was 3.08 min.
With `O=C(O)C1CCC(O)CC1` (stereo not given) [4-HYDROXYCYCLOHEXYLCARBOXYLIC ACID], the LC retention time was 4.05 min.
With `CC(O)CC(=O)O` (stereo not given) [3-HYDROXYBUTANOATE], the LC retention time is 4.45 min.
On to `O=C(O)c1c(O)cc(O)cc1O` [2,4,6-TRIHYDROXYBENZOIC ACID], for which the LC retention time is 3.9 min.
As for `Oc1ccccc1O` [PYROCATECHOL], the LC retention time is 3.85 min.
`O=C(O)CCC(=O)O` [SUCCINATE]: the LC retention time is 1.76 min.
Turning to `O=C1c2c(O)cccc2C(C2OC(CO)C(O)C(O)C2O)c2cc(CO)cc(O)c21` (stereo not given) [ALOIN], the LC retention time is 5.1 min.
Then `CC(=O)C(C)O` (stereo not given) [ACETOIN], with 3.5 min; and `COc1ccc(-c2coc3cc(O)ccc3c2=O)cc1` [FORMONONETIN], with 6.65 min.
The value for `COc1cc(CNC(=O)CCCCCCC(C)C)ccc1O` [DIHYDROCAPSAICIN] was 7.49 min; that for `O=C(O)C=Cc1cnc[nH]1` [UROCANATE] was 1.39 min.
The value for `CC1NC(=O)NC1CCCCCC(=O)O` (stereo not given) [DETHIOBIOTIN] was 4.85 min; that for `CCCCCCCCCCCCCCCC(=O)NCCO` [PALMITOYLETHANOLAMIDE] was 8.84 min.
As to `O=CCc1c[nH]c2ccccc12` [INDOLEACETALDEHYDE], the LC retention time was 6.28 min.
Turning to `O=C(O)c1cc(=O)[nH]c(=O)[nH]1` [OROTATE], the LC retention time was 1.19 min.
On to `CC(=O)NC(CC(C)C)C(=O)O` (stereo not given) [N-ACETYLLEUCINE], for which the LC retention time was 4.88 min.
The value for `O=C(O)c1cccc(O)c1` [3-HYDROXYBENZOATE] was 4.72 min; that for `C=CCSCC(N)C(=O)O` (stereo not given) [S-ALLYLCYSTEINE] was 1.22 min; that for `O=c1cc(-c2ccc(O)c(O)c2)oc2cc(O)cc(O)c12` [LUTEOLIN] was 5.54 min.
`O=C(O)CCCCC1CCSS1` [(R)-LIPOIC ACID]: the LC retention time is 6.93 min.
The value for `C[C@H](O)[C@@H](O)[C@H](O)[C@H](O)CO` [1-DEOXY-D-GLUCITOL] was 0.959 min.
For `CC(C)=CCOc1c2occc2cc2ccc(=O)oc12` [IMPERATORIN], the LC retention time was 7.46 min.
Take `Cc1cc2nc3c(=O)[nH]c(=O)nc-3n(CC(O)C(O)C(O)COP(=O)(O)OP(=O)(O)OCC3OC(n4cnc5c(N)ncnc54)C(O)C3O)c2cc1C` (stereo not given) [FAD]: the LC retention time was 4.15 min.
Turning to `CC=C1C(OC2OC(CO)C(O)C(O)C2O)OC=C(C(=O)OC)C1CC(=O)OCCc1ccc(O)c(O)c1` (stereo not given) [OLEUROPEIN], the LC retention time is 5.05 min.
As to `N[C@@H](Cc1cc(I)c(Oc2ccc(O)cc2)c(I)c1)C(=O)O` [3,5-DIIODO-L-THYRONINE], the LC retention time was 5.64 min.
With `CC(=O)NCCCC(=O)O` [4-ACETAMIDOBUTANOATE], the LC retention time is 3.27 min.
The value for `COc1ccc(-c2cc(=O)c3c(OC)c(OC)c(OC)c(OC)c3o2)cc1` [TANGERETIN] was 7.26 min; that for `CC(C)CC1NC(=O)C2CCCN2C1=O` [L,L-CYCLO(LEUCYLPROLYL)] was 4.92 min.
The value for `O=CNCC(=O)O` [N-FORMYLGLYCINE] was 0.962 min; that for `NCCc1ccc(O)c(O)c1` [DOPAMINE] was 1.74 min; that for `O=C(O)/C=C/c1ccccc1` [TRANS-CINNAMATE] was 6.45 min.
Then `CC(C)=CCNc1ncnc2nc[nH]c12` [N6-(DELTA2-ISOPENTENYL)-ADENINE], with 4.63 min.
With `COc1ccc(-c2cc(=O)c3c(OC)c(OC)c(OC)c(OC)c3o2)cc1OC` [NOBILETIN], the LC retention time is 6.99 min.
Regarding `CC1(C)C=Cc2c(ccc3c2OCC(c2ccc(O)cc2O)C3)O1` [(R)-GLABRIDIN], the LC retention time is 7.48 min.
As for `CC(=O)Oc1cccc(O)c1` [RESORCINOL MONOACETATE], the LC retention time is 5.71 min.
For `O=c1[nH]cnc2nc[nH]c12` [HYPOXANTHINE], the LC retention time was 1.76 min.
As for `CCCCCCCCCCCCCC=CC(O)C(N)CO` (stereo not given) [SPHINGOSINE], the LC retention time was 7.39 min.
Then `O=Cc1cccc(O)c1` [3-HYDROXYBENZALDEHYDE], with 5.11 min; and `COc1ccc(C2CC(=O)c3c(O)cc(OC4OC(CO)C(O)C(O)C4OC4OC(C)C(O)C(O)C4O)cc3O2)cc1O` (stereo not given) [HESPERETIN 7-NEOHESPERIDOSIDE], with 4.83 min; and `O=C(O)CCCCCCCC(=O)O` [AZELATE], with 5.52 min.
Then `OCCc1ccc(O)c(O)c1` [HYDROXYTYROSOL], with 3.89 min.
Then `O=C(O)C(=O)Cc1ccccc1` [PHENYLPYRUVATE], with 5.38 min; and `COc1cc(CC2COC(=O)C2Cc2ccc(O)c(OC)c2)ccc1O` (single isomer, unassigned; (-)) [(-)-MATAIRESINOL], with 6.12 min; and `CCC(=O)OC(CC(=O)[O-])C[N+](C)(C)C` (stereo not given) [PROPIONYLCARNITINE], with 0.894 min.
Consider `CCCCCCCCCCCC(=O)OC(CC(=O)O)C[N+](C)(C)C.[Cl-]` (stereo not given) [ISTD_LAUROYL-CARNITINE-D3], for which the LC retention time is 7.14 min.
On to `COc1cc(C=CC(=O)CC(=O)C=Cc2ccc(O)c(OC)c2)ccc1O` [CURCUMIN], for which the LC retention time was 7.18 min.
As for `O=c1cc(C2Oc3cc(O)cc(O)c3CC2O)cc2c(C3Oc4cc(O)cc(O)c4CC3O)cc(O)c(O)c2c1O` (stereo not given) [THEAFLAVIN], the LC retention time is 5.18 min.
For the compound `O=C(O)Cc1cccc(O)c1` [3-HYDROXYPHENYLACETATE], the LC retention time is 3.54 min.
Turning to `CC(O)CCCCCC(=O)O` (stereo not given) [7-HYDROXYOCTANOIC ACID], the LC retention time was 4.96 min.
As for `O=c1cc(-c2ccc(O)c(O)c2)oc2cc(OC3OC(CO)C(O)C(O)C3O)cc(O)c12` (stereo not given) [LUTEOLIN-7-GLUCOSIDE], the LC retention time is 4.44 min.
Take `CC1CNC(=O)NC1=O` (stereo not given) [DIHYDROTHYMINE]: the LC retention time was 1.26 min.
For the compound `Nc1nc2ncc(CNc3ccc(C(=O)NC(CCC(=O)O)C(=O)O)cc3)nc2c(=O)[nH]1` (stereo not given) [FOLATE], the LC retention time is 4.02 min.
As to `c1ncc2[nH]cnc2n1` [PURINE], the LC retention time was 2.2 min.
Take `CC12CCC3c4ccc(O)cc4CCC3C1CCC2O` (stereo not drawn) [ESTRADIOL-17ALPHA]: the LC retention time was 7.15 min.
Turning to `CC(=O)NCCC(=O)O` [N-ACETYL-BETA-ALANINE], the LC retention time is 1.03 min.
Regarding `CCCOC(=O)c1ccc(O)cc1` [PROPYLPARABEN], the LC retention time is 6.78 min.
For the compound `Cn1cnc2c(ncn2C2OC(CO)C(O)C2O)c1=N` (stereo not given) [1-METHYLADENOSINE], the LC retention time was 2.05 min.
Regarding `NCCOP(=O)(O)OP(=O)(O)OCC1OC(n2ccc(N)nc2=O)C(O)C1O` (stereo not given) [CDP-ETHANOLAMINE], the LC retention time is 0.882 min.
For the compound `O=C(OC1OC2COC(=O)c3cc(O)c(O)c(O)c3-c3c(cc(O)c(O)c3O)C(=O)OC(C2O)C1O)c1cc(O)c(O)c(O)c1` (stereo not given) [CORILAGIN], the LC retention time is 4.37 min.
On to `O=C1CCCC(C(=O)O)N1` (stereo not given) [6-OXOPIPERIDINE-2-CARBOXYLIC ACID], for which the LC retention time is 1.34 min.
Regarding `COc1ccc(O)c(C(=O)O)c1` [5-METHOXYSALICYLIC ACID], the LC retention time was 5.46 min.
With `COc1ccc(C2CC(=O)c3c(O)cc(O)cc3O2)cc1O` (stereo not given) [HESPERETIN], the LC retention time is 6.26 min.
In the case of `Cc1cc(C(=O)O)ccc1O` [4-HYDROXY-3-METHYLBENZOIC ACID], the LC retention time is 4.47 min.
The value for `CC(=CC(=O)O)C(=O)O` [2-METHYLMALEATE] was 3.29 min; that for `O=C(O)C1CCCCC1` [CYCLOHEXANECARBOXYLIC ACID] was 5.27 min.
Turning to `CC(=O)OC(C)(C)C=CC(=O)C(C)(O)C1C(O)CC2(C)C3CC=C4C(CC(O)C(=O)C4(C)C)C3(C)C(=O)CC12C` (stereo not given) [CUCURBITACIN B], the LC retention time was 7.07 min.
Take `Nc1ncnc2nc[nH]c12` [ADENINE]: the LC retention time was 1.3 min.
